The test system of data set [1] is B16 mouse melanoma cells. The data set can be described thus: Inhibition of melanin production in melanoma cells. In kind it is cell-based. The conditions noted are these: 72 h, read-out: Inhibitory rate of melanin production (%). As for the experimental part:
After measuring the inhibition of melanin production by matrine and oxymatrine using B16 mouse melanoma cells (Korean Cell Line Bank), the measurement was compared with that for the inhibition of melanin production by arbutin, known as a melanin production inhibitor.
B16 mouse melanoma cells F10 (Korean Cell Line Bank) were seeded into each well of a 6-well plate (1×10^5 cells/well) in DMEM (Dulbecco's modified Eagle's media) containing 10% FBS (fetal bovine serum) and the cells were cultured to about more than 80% confluence by incubating in a CO2 incubator under conditions of 37° C. and 5.0% CO2. After cultivation, the medium was removed and samples were replaced in medium diluted at suitable concentration, followed by incubating for 3 days under conditions of 37° C. and 5.0% CO2. […] The cells removing medium were washed with PBS (phosphate buffer saline) and treated with trypsin to collect cells. Number of the collected cells was calculated using hematocytometer (Tiefe Depth Profondeur 0.100 mm, Paul Marienfeld GmbH & Co. KG, D.E), centrifuged at 5,000 to 10,000 rpm for 10 min and the supernatant was eliminated, thereby obtaining pellets. This cell pellets were dried at 60° C., 100 μl of 1M NaOH containing 10% DMSO was added to thereto, and intracellular melanin was obtained in incubator at 60° C. Then, the cell solution was measured for absorbance at 490 nm using microplate reader (Bio-Tek ELx8081U, U.S) and the amount of melanin per cell constant number was estimated.

The target of data set [2] is T1, collagenase (MMP-1) (Homo sapiens, UniProt P03956).
T1 construct: Following incubation, the cell medium was collected and was used as samples; endogenous in cells; host or cells: human fibroblasts (PMA-induced)
T1 sequence (P03956 100-469): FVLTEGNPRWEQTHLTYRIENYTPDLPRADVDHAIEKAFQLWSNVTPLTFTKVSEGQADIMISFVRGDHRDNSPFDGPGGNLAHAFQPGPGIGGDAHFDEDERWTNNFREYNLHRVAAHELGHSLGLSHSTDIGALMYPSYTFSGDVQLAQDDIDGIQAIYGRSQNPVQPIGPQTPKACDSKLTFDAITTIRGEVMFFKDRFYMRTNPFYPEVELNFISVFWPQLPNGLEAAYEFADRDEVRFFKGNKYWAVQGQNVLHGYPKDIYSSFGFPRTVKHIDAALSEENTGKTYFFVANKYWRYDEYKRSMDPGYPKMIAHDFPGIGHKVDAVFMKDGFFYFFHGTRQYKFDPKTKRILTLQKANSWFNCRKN
The data set can be described thus: Collagenase activity, Type 1 collagenase assay kit, PMA-induced. The class given is cell-based. As for the experimental part: Human fibroblasts (commercially available from pacific) were seeded into a 6-well plate (2×10^5 cells/well) and the well plate was incubated in a 5% CO2 incubator for 24 hr at 37° C. After 24 hr, the medium in each well was removed and samples were treated with various concentrations, followed by incubating again for 24 hr. Following incubation, the cell medium was collected and was used as samples. To measure cytotoxicity of samples to fibroblasts, MIT reagent (1 mg/ml) was added to each well in 1/10 fold volume of the remaining medium, incubated for 3 hr and the medium was eliminated. The medium was dissolved in DMSO and its absorbance at 540 nm was measured.
As a method of measuring the activity of collagenase, an enzyme that decomposes collagen, an antibody against collagenase was used. As material inducing collagenase activity, PMA (phorbol myristate acetate, Sigma) was treated. For measuring collagenase activity, a Type 1 collagenase assay kit (Amersham Biosciences, RPN2629) was used, and the absorbance was measured using an ELISA reader (Bio-Tek ELx808™ Series Ultra Microplate Reader, U.K). The measured average values were represented as mean±standard deviation.

Data set [3] has as its system human skin. The data set can be described thus: 24-hour cumulative patch test (Finn chamber), cumulative skin irritation. The class given is in vivo. The conditions noted are these: for Average reaction level: 9 patches, 30 adults, safe if below 3. As for the experimental part: In order to find out whether matrine and oxymatrine are safe for use on human skin, a skin safety test was conducted. Suitable for this was a cumulative skin irritation test.
Squalene-based preparations containing matrine and oxymatrine in amounts of 1%, 5%, and 10% were applied in patches 9 times to the upper arms of 30 healthy adults once every other day for a total time period of 24 hours. This 24-hour cumulative patch test was conducted to determine whether matrine and oxymatrine irritates the skin or not.
The Finn chamber (Epitest Ltd, Finland) was chosen as the patching method. The above preparation for external use on the skin was dropped into each chamber in an amount of 15 μl, and a patch was applied.
Average reaction level=[{(Reaction index x reaction level)/No. of test subjects×maximum points (4 points)}×100]÷No. of test (9 times) Equation 2
Points were marked in accordance with reaction level, for example, ± for 1 point, + for 2 points, and ++ for […]. The composition can be considered safe if the average reaction level is below 3.

Setting [4] is: 5% in squalene, Week 1, of 30 subjects.
[5] abbreviates: 10% in squalene, Week 1, of 30 subjects.

This note sets out measurements from patent US20100099698A1, “Compositions for Improving Skin Conditions Comprising Matrine or Its Oxidized Derivatives” (Biospectrum Inc., priority 2007, published 2010).

Each structure is given as a SMILES string. Where two headings read alike, the source gives them in different places.

Turning to `O=C1CCC[C@@H]2[C@H]3CCCN4CCC[C@@H](CN12)[C@@H]34` [Matrine, matrine], in data set [1], the inhibition at 10 µM is 11%, the inhibition at 100 µM worked out at 31% and the inhibition at 500 µM amounted to 39%. Moreover, in data set [2], the inhibition at 1 µM came out at 19%, the inhibition at 10 µM was determined as 20% and the inhibition at 50 µM amounted to 32%. This molecule had an Average reaction level in data set [3] (1% in squalene) of 0. For the same molecule, the “No. of test subjects with reaction, 2nd, ±” value (“No. of test subjects … 2nd, ±” for short) in data set [3] (1% in squalene, Week 1, of 30 subjects) was determined as 0. The same molecule showed an Average reaction level in data set [3] (5% in squalene) of 0.09. In data set [3] (setting [4]), the “No. of test subjects with reaction, 1st, ±” value (from here on “No. of test subjects … 1st, ±”) came out at 1 and the “No. of test subjects … 2nd, ±” value is 0. Also, the Average reaction level in data set [3] (10% in squalene) was 0.18. Further, in data set [3] (setting [5]), the “No. of test subjects … 1st, ±” value came to 2 and the “No. of test subjects … 2nd, ±” value is reported as 0.
Regarding `O=C1CCC[C@@H]2[C@H]3CCC[N+]4([O-])CCC[C@@H](CN12)[C@@H]34` (some centres unmarked) [Oxymatrine, oxymatrine], the inhibition at 10 µM in data set [1] (10 μM, 3 days) came out at 13%. Moreover, in data set [1] (100 μM, 3 days), the inhibition at 100 µM was 27%. For the same molecule, the inhibition at 500 µM in data set [1] (500 μM, 3 days) is 31%. In data set [2], the inhibition at 1 µM amounted to 6%, the inhibition at 10 µM was found to be 13% and the inhibition at 50 µM was determined as 17%. In data set [3] (human, in vivo), the “No. of test subjects … 1st, ±” value stood at 2 and the “No. of test subjects … 2nd, ±” value is recorded as 0. Also, the “No. of test subjects … 1st, ±” value in data set [3] (in vivo) is reported as “−”.
